From patent publication US20240209325A1, “CANCER PROPHYLAXIS AND THERAPY USING TARGETED VIRAL NANOPARTICLES” (priority 2021, published 2024)
“Also recorded” adds a separate entry of the source.

Key:
[1] = biological target: T1, S100A9 (Homo sapiens, UniProt P06702); conditions: peptides that target or recognize and bind S100A9; screening described in Park et al. 2021; cited from earlier work
T1 sequence (P06702 1-114): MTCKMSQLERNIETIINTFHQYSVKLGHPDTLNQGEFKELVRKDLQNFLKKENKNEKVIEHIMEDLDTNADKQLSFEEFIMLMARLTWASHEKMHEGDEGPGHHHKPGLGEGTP

[2] = system: RAW-Blue cells: Toll-like receptor (TLR) and NOD stimulation; experiment: RAW-Blue immunogenicity assay (SEAP, QUANTI-Blue); type: cell-based; conditions: for immunogenicity, activation of NF-κB and AP-1, CPMV compared to CCMV (in words): FIG. 6B, 0.5 μg, 18 hours per method
Procedure: The immunogenicity of CPMV and CCMV was compared through a RAW-Blue™ assay (Invivogen). Briefly, 100,000 RAW-Blue™ cells/well were incubated with 0.5 μg of CPMV and CCMV, 50 EU mL-1 E. coli endotoxin standard control (ThermoScientific), or culture media for 18 hours. Toll-like receptor (TLR) and nucleotide-binding oligomerization domain (NOD) stimulation was assessed by measuring the levels of secreted embryonic alkaline phosphatase (SEAP) using a QUANTI-Blue™ (Invivogen) assay. Absorbance was measured at 655 nm using a Tecan microplate reader.
The immunogenicity between CPMV and its peptide-conjugated counterparts was also assessed using a RAW-Blue™ assay. […] A QUANTI-Blue™ assay was run like before, and absorbance was measured at 655 nm.

[3] = system: 4T1-Luc cells; experiment: 4T1-Luc i.v. challenge to CPMV pre-treated mice (prophylaxis); type: in vivo, Balb/c mice
Procedure: After 5 days, the mice were challenged by i.v. injection of 200,000 4T1-Luc cells. The mice were imaged with the IVIS using luminescent imaging every 3 days by injecting intraperitoneally (i.p.) 150 mg/kg of body weight D-luciferin. ROI measurements were taken through the Living Image 3.0 software. The weight of the mice was also tracked every 3 days. After 25 days (20 days after tumor inoculation), the lungs were collected and fixed in Bouin's solution for 3 days. Each tumor nodule on the lungs was counted manually and averaged between the mice in each group.
To determine whether the prophylactic effect of S100A9-targeted CPMV could be replicated in other tumor models, we first exposed Balb/C mice to CPMV and S100A9-targeted CPMV by i.v. injection, and then challenged mice with luciferase-labeled 4T1 (4T1-Luc) cells. This experimental lung metastatic model mimics metastatic triple negative breast cancer (TNBC). Tumor cell challenge was carried out 5 days post CPMV exposure (FIG. 4G). […] By day 21, all the mice in the PBS treatment group had to be sacrificed due to significant weight loss (FIG. 12B). […] The lungs were harvested after 25 days and fixed in Bouin's solution before manual counting of tumor nodules (FIG. 4H, FIG. 4I). […] There was no significant difference between the CPMV and the CPMV-G3.

[4] = biological target: T2, S100A9 (Mus musculus, UniProt P31725); experiment: Confocal imaging of co-localization with S100A9 in tumor-bearing lung sections; type: in vivo, B16F10-inoculated mice
T2 construct: confocal imaging of tumor-bearing lungs sections was performed; from tissue; host or cells: lungs of B16F10-inoculated C57BL/6 mice
T2 sequence (P31725 1-113): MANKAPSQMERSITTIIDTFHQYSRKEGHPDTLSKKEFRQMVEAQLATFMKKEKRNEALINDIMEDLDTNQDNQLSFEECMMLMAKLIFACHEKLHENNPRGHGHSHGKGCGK

[5] = system: innate immune cells in the lungs (DCs, neutrophils, macrophages); experiment: Flow cytometry of innate immune cell profile in lungs; type: in vivo, C57BL/6 mice; conditions: 200 μg i.v., lungs after 24 h; FACS (FIG. 6C)
Procedure: Lungs were harvested after 24 hours. Harvested organs were each placed in separate gentle MACS C tubes (Miltenyi Biotec) and dissociated with enzymatic solutions (lung dissociation kits, Miltenyi Biotec). The C tube lid was tightly screwed, inverted, and inserted in a gentleMACS dissociator (Militenyi Biotec). Organs were minced and digested on appropriate gentleMACS programs. After digestion, cells were passed through 40 μm pore size strainers and centrifuged at 500 g for 5 min. The cell pellet was resuspended in 5 mL of 1× RBC lysis solution (eBioscience) and incubated at RT for 2 min, followed by the addition of RPMI-1640 medium to stop lysis. Cells were centrifuged again at 500 g for 5 min and resuspended in PBS with 1% BSA and 2 mM EDTA (FACS solution). Total cell count and viability were found using trypan blue solution (Sigma-Aldrich) and a Countess™ automated cell counter (Invitrogen). Cell concentrations were adjusted to 1.0×10^7 cells/mL.
To reduce background staining of antibodies, 0.25 μg of purified rat anti-mouse CD16/32 (Biolegend) was added to 100 μL cell suspensions before adding to the conjugated antibodies. Cells were incubated at RT for ten minutes prior to immunofluorescence staining. All antibodies for immunofluorescence staining were purchased from Biolegend and diluted in FACS solution according to the manufacturer's recommendation. […]

[6] = Biodistribution of Cy5-labeled CPMV and CCMV particles after i.v. injection (ex vivo IVIS); conditions: for accumulation/clearance in liver (share of fluorescence signal): Cy5-labeled particles, 200 μg i.v., organs harvested after 24 h; for lung homing (in words): healthy and B16F10 tumor-bearing mice, i.v., 24 h
Procedure: Healthy and B16F10 metastatic tumor-bearing C57BL/6 female mice were used for biodistribution studies of the Cy5-labeled CPMV and CCMV from Section 2. B16F10 cells (200,000 cells/mouse) were administered i.v. and the tumors were matured for one week. […] After 24 hours, the lungs were harvested and then imaged and quantified for fluorescence using the IVIS (Xenogen).
Both healthy and B16F10 tumor-bearing mice were injected with native and H6/G3-conjugated CPMV and CCMV; to enable tracking the nanoparticles were labeled with Cy5. Lungs and other organs were harvested 24 h following intravenous (i.v.) nanoparticle injection and imaged ex vivo to observe localization of the nanoparticles in the lungs, spleen, kidney, and liver (FIG. 3A).

[7] = system: B16F10 melanoma cells; experiment: B16F10 i.v. challenge to CPMV and CCMV pre-treated mice (prophylaxis); type: in vivo, C57BL/6J mice
From the text: After 7 days, the mice were challenged by i.v. administration of 200,000 B16F10 melanoma cells per mouse. Lungs were harvested at day 21 (day 14 after tumor inoculation) and fixed in a 10% (v/v) neutral-buffered formalin solution overnight. Following fixation, the lungs were stored in 70% (v/v) ethanol (EtOH), and the number of tumor nodules per lung was manually counted.
After tumor nodule counting, the fixed lung samples were submitted to the La Jolla Institute for Immunology for hematoxylin and eosin (H&E) staining and imaging. Paraffin-embedded blocks were sectioned at 4 μm on a Leica RM2125 RTS microtome. The sections were then floated on a 42° C. tissue flotation bath and mounted onto Fisher Superfrost Plus microscope slides and subjected to H&E staining. Scanning was accomplished using a ZEISS AxioScan Z1 using a 20× objective. The ratio of tumor cells to total cells was measured from the histology slides using QuPath software^68.
To investigate the suitability of S100A9-targeted VNPs to serve as a prophylactic immunotherapy preventing manifestation of lung metastasis, we used a lung metastasis mouse model using C57BL/6J mice i.v. challenged with B16F10 melanoma cells. C57BL/6J mice were pre-exposed to the CPMV (therapeutic) and CCMV (control) nanoparticles with and without the H6/G3 targeting ligands, one week before being challenged i.v. with B16F10 melanoma cells (FIG. 4A). Lungs were harvested 2 weeks post tumor challenge, and tumor nodules were manually counted. […] This experiment was repeated one more time with only the CPMV particles as well as the H6 peptide only control (FIG. 4D).

[8] = system: 4T1-Luc cells; experiment: Treatment of 4T1-Luc lung metastasis (immunotherapy); type: in vivo, Balb/c mice; conditions: 200 μg i.v. 3 days post tumor inoculation
Procedure: 4T1-luc cells (100,000/mouse) were injected i.v. into female Balb/c mice (n=15). […] Tumor growth was monitored by total bioluminescence imaging based on the i.p. injection of 150 mg/kg of body weight D-luciferin. Total bioluminescence was determined using the Living Image 3.0 software, and ROI were quantified as average counts.
A representative IVIS image on day 9 is shown in FIG. 5E while further imaging can be found in FIG. 13. […] The unabated tumor growth led to the mice in the PBS and CPMV groups all dying within 15 days or reaching their clinical endpoints before being sacrificed (FIG. 13B).

[9] = biological target: T3, CPMV-Cy5-PEG (cowpea mosaic virus nanoparticle without targeting peptide) (Cowpea mosaic virus, UniProt P03599 460-833; P03599 834-1022); experiment: confocal imaging of tumor-bearing mouse lung sections after i.v. injection of the particles, S100A9 stained with antibody
T3 sequence 1: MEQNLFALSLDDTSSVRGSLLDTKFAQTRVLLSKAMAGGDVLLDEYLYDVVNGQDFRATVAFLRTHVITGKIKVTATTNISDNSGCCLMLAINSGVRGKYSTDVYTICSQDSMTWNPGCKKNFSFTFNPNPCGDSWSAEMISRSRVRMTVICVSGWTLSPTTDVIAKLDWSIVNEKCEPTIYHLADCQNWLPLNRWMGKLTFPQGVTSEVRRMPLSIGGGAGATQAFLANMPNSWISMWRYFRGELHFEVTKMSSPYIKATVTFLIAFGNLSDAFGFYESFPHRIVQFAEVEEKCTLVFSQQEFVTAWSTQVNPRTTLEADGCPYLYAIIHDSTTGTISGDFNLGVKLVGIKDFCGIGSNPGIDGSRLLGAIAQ
T3 sequence 2: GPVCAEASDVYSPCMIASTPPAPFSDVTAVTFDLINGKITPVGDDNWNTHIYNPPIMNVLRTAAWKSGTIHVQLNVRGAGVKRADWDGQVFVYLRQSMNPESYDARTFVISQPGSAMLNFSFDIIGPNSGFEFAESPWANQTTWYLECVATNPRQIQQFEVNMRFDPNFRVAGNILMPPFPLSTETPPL

peptide that binds S100A9, ACNSVHQHHCGGGS (SEQ ID NO: 13) [MTP6]
Kd [1]: 39.6 µM

peptide that binds S100A9, ACNSHRHGACGGGS (SEQ ID NO: 12) [MTP5]
Kd [1]: 67.6 µM

peptide that binds S100A9, HNHMADPGGGS (SEQ ID NO: 11) [MTP3]
Kd [1]: 117 µM

Cowpea mosaic virus [CPMV]
TLR and/or NOD agonism / immunostimulation (in words) ([2]; CPMV, peptide-conjugated CPMV and peptides only, 10 μg, 24 h (FIG. 6A)): strong TLR and/or NOD agonists
immunogenicity, activation of NF-κB and AP-1, CPMV compared to CCMV (in words) [2]: much more immunogenic compared to CCMV; also recorded: higher level of activation; also recorded: immunostimulated by CPMV
decrease in tumor nodules compared to PBS ([3]; 225 μg i.v. 5 days before challenge, lungs harvested after 25 days): 10.6 fold
tumor growth by luminescent imaging (in words) ([3]; IVIS every 3 days, up to day 21): no signs of tumor growth by day 21
side effects (in words) ([3]; throughout the experiment): no apparent side effects were observed
weight of the mice (in words) ([3]; tracked every 3 days throughout the experiment): stayed fairly consistent
association/co-localization with S100A9 (in words) [4]: no association with S100A9
immune cell recruitment and activation in the lungs (in words) [5]: did not produce a significant impact
accumulation/clearance in liver (share of fluorescence signal) [6]: 75%
lung homing (in words) [6]: do not home to the lungs; also recorded: did not accumulate in the lungs
reduction of the ratio of tumor:total cells ([7]; H&E lung histology, QuPath (FIG. 4F)): 1.7 fold
decrease of tumor nodules (tumor burden) in the lungs compared to PBS ([7]; first study (FIG. 4C), 200 μg i.v. 7 days before challenge, lungs 2 weeks post challenge): 2.1 fold
reduction of tumor nodules compared to PBS ([7]; repeated experiment (FIG. 4D)): 1.7 fold
time by which all mice died or reached clinical endpoints [8]: ≤ 15 days
tumor burden / tumor growth by bioluminescence (in words) [8]: significant tumor burden; also recorded: unable to slow 4T1-Luc tumor growth

scrambled control peptide MDPHAHNGGGS (SEQ ID NO: 16) [reference compound]
KD [1]: no binding

peptide that binds S100A9, ASSHIHHGGGS (SEQ ID NO: 10) [MTP2]
Kd [1]: 77.6 µM

cowpea chlorotic mottle virus [CCMV]
immunogenicity, activation of NF-κB and AP-1, CPMV compared to CCMV (in words) [2]: immunostimulated by CPMV and not CCMV
accumulation/clearance in liver (share of fluorescence signal) [6]: 75%
lung homing (in words) [6]: does not home to the lungs
effect on tumor burden in the lungs (in words) ([7]; first study (FIG. 4C), compared to PBS): This effect was not seen

B1: S100A9 (S100 calcium-binding protein A9), endogenous, in lung sections of B16F10 tumor-bearing C57BL/6 mice (other)
chain: ANKAPSQMERSITTIIDTFHQYSRKEGHPDTLSKKEFRQMVEAQLATFMKKEKRNEALINDIMEDLDTNQDNQLSFEECMMLMAKLIFACHEKLHENNPRGHGHSHGKGCGK
notes: also called MRP14; calgranulin B
binding result [9]: no binding
